Our source for the mutagenic call and call values is PubChem BioAssay AID1259408 (Genetic Toxicology Data Bank (GENE-TOX), 2018).

This data set has as its system GENE-TOX genotoxicity assays, various organisms and cells. The data set can be described thus: GENE-TOX mutagenicity studies.
Where [1] appears, read: Species/Cell Type: Mammalian polychromatic erythrocytes, Assay Type: Micronucleus test, chromosome aberrations, Assay Code: MNTT, Evaluation Type: Evaluation B (Post-1980).
The mark [2] stands for this setting: Species/Cell Type: Salmonella typhimurium (one or more of the five standard strains: TA98, TA100, TA1535, TA1537, and TA1538), Assay Type: Histidine reverse gene mutation, Ames assay, Assay Code: SALT, Evaluation Type: Evaluation A (Pre-1980).
The mark [3] stands for this setting: Species/Cell Type: Salmonella typhimurium (one or more of the five standard strains: TA98, TA100, TA1535, TA1537, and TA1538), Assay Type: Histidine reverse gene mutation, Ames assay, Assay Code: SAL+, Evaluation Type: Evaluation A (Pre-1980).
The mark [4] stands for this setting: Species/Cell Type: Saccharomyces cerevisiae, Assay Type: Mitotic recombination or gene conversion, Assay Code: YEC-, Evaluation Type: Evaluation A (Pre-1980).
Setting [5] is: Species/Cell Type: Human lymphocytes, Assay Type: Sister-chromatid exchange (SCE) in vitro, Assay Code: SCL+D, Dose Response: With dose response, Evaluation Type: Evaluation B (Post-1980).
[6] abbreviates: Species/Cell Type: Human, Assay Type: Sister-chromatid exchange (SCE) in vitro, Assay Code: SC1+D, Dose Response: With dose response, Evaluation Type: Evaluation B (Post-1980).
Where [7] appears, read: Species/Cell Type: Saccharomyces cerevisiae, Assay Type: Mitotic recombination or gene conversion, Assay Code: YEC+, Evaluation Type: Evaluation A (Pre-1980).
The mark [8] stands for this setting: Species/Cell Type: Drosophila melanogaster, Assay Type: Sex-linked recessive lethal gene mutation, Assay Code: SRLT, Evaluation Type: Evaluation A (Pre-1980).
Setting [9] is: Species/Cell Type: Rodents, Sex: Male, Assay Type: Dominant lethal test, Assay Code: DLT-, Evaluation Type: Evaluation A (Pre-1980).
Setting [10] is: Species/Cell Type: Salmonella typhimurium, Assay Type: Forward and reverse gene mutation, host-mediated assay, Assay Code: HMA-, Evaluation Type: Evaluation A (Pre-1980).
The mark [11] stands for this setting: Species/Cell Type: Escherichia coli polA (W3119 vs P3478), Assay Type: Rec-assay, DNA effects (bacterial DNA repair), Assay Code: RE1+, Evaluation Type: Evaluation A (Pre-1980).
Setting [12] is: Species/Cell Type: Drosophila melanogaster, Assay Type: Sex-linked recessive lethal gene mutation, Assay Code: SRL+, Evaluation Type: Evaluation A (Pre-1980).

The structures appear in SMILES notation. Activity calls are given as the source filed them. The rule behind the calls is not given here.

For the compound `O=c1ccc2c(cc(O)c3c4ccccc4nnc23)o1`, under setting [1], the mutagenic call is on record as “no conclusion”.
Take `Cn1c(=O)c(N)c(-c2ccccc2)c2cc(Cl)ccc21`: the mutagenic call under setting [2] is listed as “no conclusion”.
For `O=NN1CCCNC1=O`, the mutagenic call under setting [3] is “active; positive”.
For the compound `O=S(=O)(O)c1ccc2c(N=Nc3ccccc3)c(O)ccc2c1`, under setting [4], the mutagenic call is “inactive; negative”.
For the compound `CC[N+]([O-])(CC)CCNc1ccc(C)c2sc3ccccc3c(=O)c12`, under setting [2], the mutagenic call is on record as “no conclusion”.
As for `O=c1[nH]c(=O)n([C@H]2C[C@H](O)[C@@H](CO)O2)cc1CO`, the mutagenic call reads like this: under setting [5], “active; positive”; under setting [6], “active; positive”.
For the compound `Cc1c2ccccc2cc2c(F)cc3ccccc3c12`, the mutagenic call (Species/Cell Type: Mouse prostate cells, Assay Type: Cell transformation, Assay Code: CTM+, Evaluation Type: Evaluation A (Pre-1980)) was “active; positive”.
As to `CO`, the mutagenic call is, setting by setting: under setting [1], “no conclusion”; (Species/Cell Type: Neurospora crassa, Assay Type: Aneuploidy, chromosome aberrations, Assay Code: NEN-, Evaluation Type: Evaluation A (Pre-1980)) “inactive; negative”; (Species/Cell Type: Nonhuman, Assay Type: Sister-chromatid exchange (SCE) in vitro, Assay Code: SC2-, Evaluation Type: Evaluation A (Pre-1980)) “inactive; negative”; (Species/Cell Type: Syrian hamster embryo (SA7/SHE) cells, Assay Type: Cell transformation, viral enhanced, Assay Code: CT7-, Evaluation Type: Evaluation A (Pre-1980)) “inactive; negative”; (Species/Cell Type: Syrian hamster embryo (SHE) cells, Assay Type: Cell transformation, clonal assay, Assay Code: CTC-, Evaluation Type: Evaluation A (Pre-1980)) “inactive; negative”.
`Cc1cc2cc3cc(C)c(N)cc3nc2cc1N`: the mutagenic call is, setting by setting: (Species/Cell Type: Mammalian cell culture, nonhuman, Assay Type: Micronucleus test in vitro, chromosome aberrations, Assay Code: MN&+, Evaluation Type: Evaluation A (Pre-1980)) “active; positive”; under setting [7], “active; positive”.
In the case of `N#CS`, the mutagenic call was “inactive; negative” (Species/Cell Type: Glycine max (soybean), Assay Type: Gene mutation, Assay Code: GLM-, Evaluation Type: Evaluation A (Pre-1980)) and “no conclusion” under setting [2].
With `O=Cc1ccccc1[N+](=O)[O-]`, the mutagenic call under setting [3] is “active; positive”.
Consider `CCN(CCCl)CCCNc1ccnc2cc(Cl)ccc12`, for which the mutagenic call (Species/Cell Type: Neurospora crassa, Assay Type: Reverse gene mutation, Assay Code: NER+, Evaluation Type: Evaluation A (Pre-1980)) is “active; positive”.
In the case of `Cn1c(=O)c2c(ncn2CC(O)CO)n(C)c1=O` (configuration not stated), the mutagenic call is given as “no conclusion” (Species/Cell Type: Human lymphocytes, Assay Type: Sister-chromatid exchange (SCE) in vitro, Assay Code: SCLT, Evaluation Type: Evaluation B (Post-1980)) and “no conclusion” (Species/Cell Type: Human, Assay Type: Sister-chromatid exchange (SCE) in vitro, Assay Code: SC1T, Evaluation Type: Evaluation B (Post-1980)).
Turning to `Nc1ccc(Oc2ccc(N)cc2)cc1`, the call (Species/Cell Type: Nonhuman, Assay Type: In vivo carcinogenicity studies, Assay Code: CCG+, Evaluation Type: Evaluation A (Pre-1980)) was “active; positive”. The mutagenic call (Species/Cell Type: Nonhuman, Assay Type: Sister-chromatid exchange (SCE) in vivo, Assay Code: SC3T, Evaluation Type: Evaluation B (Post-1980)) is given as “no conclusion”.
`COP(=S)(OC)Oc1ccc([N+](=O)[O-])c(C)c1`: the mutagenic call reads like this: under setting [8], “no conclusion”; (Species/Cell Type: Human, Assay Type: Sister-chromatid exchange (SCE) in vitro, Assay Code: SC1+, Evaluation Type: Evaluation B (Post-1980)) “active; positive”; under setting [1], “no conclusion”; under setting [9], “inactive; negative”; under setting [10], “inactive; negative”.
With `CCOS(=O)(=O)c1ccc(C)cc1`, the mutagenic call was “active; positive” under setting [11]; “active; positive” (Species/Cell Type: Human diploid fibroblasts, Assay Type: Unscheduled DNA synthesis (UDS) in vitro, DNA effects, Assay Code: UDH+, Evaluation Type: Evaluation A (Pre-1980)); “active; positive” (Species/Cell Type: Saccharomyces cerevisiae, Assay Type: Mitotic recombination or gene conversion, Assay Code: YEH+, Evaluation Type: Evaluation A (Pre-1980)); “active; positive” under setting [3]; “inactive; negative” under setting [10]; “active; positive” (Species/Cell Type: Syrian hamster embryo (SHE) cells, Assay Type: Cell transformation, clonal assay, Assay Code: CTC+, Evaluation Type: Evaluation A (Pre-1980)).
With `NNc1cc2c(nn1)CCN(C(=O)c1ccccc1)C2`, where the note is “Species/Cell Type: Nonhuman, Assay Type: Sister-chromatid exchange (SCE) in vivo, Assay Code: SC3+, Evaluation Type: Evaluation B (Post-1980)”, the mutagenic call was “active; positive”.
`CCN(CC)Cc1cc(Br)ccc1OCC(=O)N/N=C/c1ccc(O)c(OC)c1`: the mutagenic call (Species/Cell Type: Saccharomyces cerevisiae, Assay Type: Reverse gene mutation, Assay Code: YERT, Evaluation Type: Evaluation A (Pre-1980)) is “no conclusion”.
In the case of `CCOP(=O)(NC(C)C)Oc1ccc(SC)c(C)c1` (configuration not stated), the mutagenic call (Species/Cell Type: Nonhuman, Assay Type: Sister-chromatid exchange (SCE) in vitro, Assay Code: SC2-, Evaluation Type: Evaluation B (Post-1980)) was “inactive; negative”.
On to `C=Cc1ccccc1C`, for which the mutagenic call is “active; positive” under setting [5] and “active; positive” under setting [6].
As for `C[CH2][Hg][S]c1ccccc1C(=O)O`, the mutagenic call under setting [7] is “active; positive”.
`O=NN1CCNC1=S`: the mutagenic call was “no conclusion” (Species/Cell Type: Mammalian polychromatic erythrocytes, Assay Type: Micronucleus test, chromosome aberrations, Assay Code: MNTT, Evaluation Type: Evaluation A (Pre-1980)); “active; positive” (Species/Cell Type: Nonhuman, Assay Type: Sister-chromatid exchange (SCE) in vitro, Assay Code: SC2+D, Dose Response: With dose response, Evaluation Type: Evaluation B (Post-1980)); “inactive; negative” under setting [9].
In the case of `O=C1C=C(N2CC2)C(=O)C=C1N1CC1`, under setting [12], the mutagenic call was “active; positive”.
For `ClN1CCCCC1`, for the setting “Species/Cell Type: Mammalian polychromatic erythrocytes, Assay Type: Micronucleus test, chromosome aberrations, Assay Code: MNT-, Evaluation Type: Evaluation B (Post-1980)”, the mutagenic call was “inactive; negative”.
With `CN[C@@H](C)Cc1ccccc1`, the mutagenic call under setting [8] is given as “no conclusion”.
Regarding `Cc1ccc(C2CO2)cc1C` (configuration not stated), the mutagenic call was “active; positive” (Species/Cell Type: Escherichia coli WP2, Assay Type: Tryptophan reverse gene mutation, Assay Code: WP2+D, Dose Response: With dose response, Evaluation Type: Evaluation A (Pre-1980)) and “active; positive” (Species/Cell Type: Escherichia coli WP2 UVRA, Assay Type: Tryptophan reverse gene mutation, Assay Code: WPU+D, Dose Response: With dose response, Evaluation Type: Evaluation A (Pre-1980)).
Regarding `ClCCBr`, the mutagenic call (Species/Cell Type: Chinese hamster ovary (CHO) cells, Assay Type: Forward gene mutation at the HPRT locus, Assay Code: CHO+, Evaluation Type: Evaluation B (Post-1980)) is “active; positive” and the mutagenic call under setting [11] is “active; positive”.
Turning to `CC(CNC(=O)N(CCCl)N=O)NC(=O)N(CCCl)N=O` (configuration not stated), the mutagenic call reads like this: under setting [12], “active; positive”; under setting [7], “active; positive”.
`CCCCN(CC(=O)CC)N=O`: the mutagenic call (Species/Cell Type: Salmonella typhimurium (one or more of the five standard strains: TA98, TA100, TA1535, TA1537, and TA1538), Assay Type: Histidine reverse gene mutation, Ames assay, Assay Code: SAL+*, Activation: With metabolic activation, Evaluation Type: Evaluation A (Pre-1980)) was “active; positive”.
Turning to `C=CCC1=C(C)C(OC(=O)[C@@H]2[C@@H](C=C(C)C)C2(C)C)CC1=O` (some centres not stated), the mutagenic call (Species/Cell Type: Human diploid fibroblasts, Assay Type: Unscheduled DNA synthesis (UDS) in vitro, DNA effects, Assay Code: UDH-, Evaluation Type: Evaluation A (Pre-1980)) was “inactive; negative” and the mutagenic call (Species/Cell Type: Saccharomyces cerevisiae, Assay Type: Mitotic recombination or gene conversion, Assay Code: YEH-, Evaluation Type: Evaluation A (Pre-1980)) is “inactive; negative”.
As to `CC(=O)OC(OC(C)=O)c1ccc([N+](=O)[O-])o1`, the mutagenic call was “active; positive” (Species/Cell Type: Escherichia coli WP2 UVRA, Assay Type: Tryptophan reverse gene mutation, Assay Code: WPU+, Evaluation Type: Evaluation A (Pre-1980)); “active; positive” (Species/Cell Type: Nonhuman, Assay Type: Sister-chromatid exchange (SCE) in vitro, Assay Code: SC2+, Evaluation Type: Evaluation B (Post-1980)); “active; positive” under setting [3].
As for `CNC(=O)Oc1ccccc1OC(C)C`, the mutagenic call was “no conclusion” (Species/Cell Type: Bacillus subtilis (H17 vs M45), Assay Type: Rec-assay, spot test, DNA effects (bacterial DNA repair), Assay Code: REWT, Evaluation Type: Evaluation A (Pre-1980)); “inactive; negative” (Species/Cell Type: Bacillus subtilis (H17 vs M45T), Assay Type: Rec-assay, spot test, DNA effects (bacterial DNA repair), Assay Code: REX-, Evaluation Type: Evaluation A (Pre-1980)); “inactive; negative” (Species/Cell Type: Escherichia coli WP2, Assay Type: Tryptophan reverse gene mutation, Assay Code: WP2-, Evaluation Type: Evaluation A (Pre-1980)); “inactive; negative” under setting [4].
